Data reported in the NIST ThermoML archive (doi:10.1021/acs.jced.6b00718).

Assay: xn = mol fraction of the nth substance listed
Conditions: 101 kPa, Liquid; for viscosity: Falling or rolling sphere viscometry; for mass density: Vibrating tube method; for electrical conductivity: Alternating current cell with electrodes, x2 = 0.1402

CCCC#N [butanenitrile] + CCCC[N+]1(C)CCCC1.O=S(=O)([N-]S(=O)(=O)C(F)(F)F)C(F)(F)F
Conditions | mass density [kg/m3] | viscosity [mPa·s]
293.15 K, x2 = 0 | 791.1 | 0.88
293.15 K, x2 = 0.1003 | 965 | –
293.15 K, x2 = 0.1009 | – | 1.51
293.15 K, x2 = 0.1987 | – | 2.73
293.15 K, x2 = 0.1994 | 1078.7 | –
293.15 K, x2 = 0.3001 | 1160.1 | –
293.15 K, x2 = 0.3002 | – | 6.43
293.15 K, x2 = 0.4 | – | 8.77
293.15 K, x2 = 0.4006 | 1220.4 | –
293.15 K, x2 = 0.4999 | 1267.7 | –
293.15 K, x2 = 0.5012 | – | 14.45
293.15 K, x2 = 0.6 | 1304.7 | 22.39
293.15 K, x2 = 0.7 | 1335.1 | 33.65
293.15 K, x2 = 0.8 | 1360.6 | 49.94
293.15 K, x2 = 0.9 | – | 73.01
293.15 K, x2 = 0.9007 | 1382 | –
298.15 K, x2 = 0 | 786.4 | 0.86
298.15 K, x2 = 0.1003 | 960.4 | –
298.15 K, x2 = 0.1009 | – | 1.45
298.15 K, x2 = 0.1987 | – | 2.53
298.15 K, x2 = 0.1994 | 1074.3 | –
298.15 K, x2 = 0.3001 | 1155.4 | –
298.15 K, x2 = 0.3002 | – | 5.72
298.15 K, x2 = 0.4 | – | 7.81
298.15 K, x2 = 0.4006 | 1216.1 | –
298.15 K, x2 = 0.4999 | 1263.2 | –
298.15 K, x2 = 0.5012 | – | 12.44
298.15 K, x2 = 0.6 | 1300 | 18.94
298.15 K, x2 = 0.7 | 1330.5 | 27.95
298.15 K, x2 = 0.8 | 1356 | 40.71
298.15 K, x2 = 0.9 | – | 58.33
298.15 K, x2 = 0.9007 | 1377.5 | –
303.15 K, x2 = 0 | 781.8 | 0.84
303.15 K, x2 = 0.1003 | 955.7 | –
303.15 K, x2 = 0.1009 | – | 1.37
303.15 K, x2 = 0.1987 | – | 2.37
303.15 K, x2 = 0.1994 | 1069.6 | –
303.15 K, x2 = 0.3001 | 1150.8 | –
303.15 K, x2 = 0.3002 | – | 5.13
303.15 K, x2 = 0.4 | – | 7.14
303.15 K, x2 = 0.4006 | 1211.4 | –
303.15 K, x2 = 0.4999 | 1258.6 | –
303.15 K, x2 = 0.5012 | – | 10.81
303.15 K, x2 = 0.6 | 1295.5 | 16.2
303.15 K, x2 = 0.7 | 1326 | 23.51
303.15 K, x2 = 0.8 | 1351.5 | 33.68
303.15 K, x2 = 0.9 | – | 47.41
303.15 K, x2 = 0.9007 | 1373 | –
313.15 K, x2 = 0 | 772.4 | 0.81
313.15 K, x2 = 0.1003 | 946.2 | –
313.15 K, x2 = 0.1009 | – | 1.25
313.15 K, x2 = 0.1987 | – | 2.07
313.15 K, x2 = 0.1994 | 1060.1 | –
313.15 K, x2 = 0.3001 | 1141.4 | –
313.15 K, x2 = 0.3002 | – | 4.22
313.15 K, x2 = 0.4 | – | 5.68
313.15 K, x2 = 0.4006 | 1202.1 | –
313.15 K, x2 = 0.4999 | 1249.3 | –
313.15 K, x2 = 0.5012 | – | 8.38
313.15 K, x2 = 0.6 | 1286.2 | 12.18
313.15 K, x2 = 0.7 | 1316.8 | 17.18
313.15 K, x2 = 0.8 | 1342.3 | 23.91
313.15 K, x2 = 0.9 | – | 32.67
313.15 K, x2 = 0.9007 | 1363.8 | –
323.15 K, x2 = 0 | 763 | 0.78
323.15 K, x2 = 0.1003 | 936.8 | –
323.15 K, x2 = 0.1009 | – | 1.17
323.15 K, x2 = 0.1987 | – | 1.84
323.15 K, x2 = 0.1994 | 1050.7 | –
323.15 K, x2 = 0.3001 | 1132.1 | –
323.15 K, x2 = 0.3002 | – | 3.52
323.15 K, x2 = 0.4 | – | 4.62
323.15 K, x2 = 0.4006 | 1192.9 | –
323.15 K, x2 = 0.4999 | 1240.2 | –
323.15 K, x2 = 0.5012 | – | 6.67
323.15 K, x2 = 0.6 | 1277.2 | 9.47
323.15 K, x2 = 0.7 | 1307.9 | 13.04
323.15 K, x2 = 0.8 | 1333.3 | 17.69
323.15 K, x2 = 0.9 | – | 23.59
323.15 K, x2 = 0.9007 | 1354.9 | –
333.15 K, x2 = 0 | 753.5 | 0.75
333.15 K, x2 = 0.1003 | 927.3 | –
333.15 K, x2 = 0.1009 | – | 1.12
333.15 K, x2 = 0.1987 | – | 1.65
333.15 K, x2 = 0.1994 | 1041.1 | –
333.15 K, x2 = 0.3001 | 1122.9 | –
333.15 K, x2 = 0.3002 | – | 3.03
333.15 K, x2 = 0.4 | – | 3.85
333.15 K, x2 = 0.4006 | 1183.7 | –
333.15 K, x2 = 0.4999 | 1231 | –
333.15 K, x2 = 0.5012 | – | 5.43
333.15 K, x2 = 0.6 | 1268.3 | 7.55
333.15 K, x2 = 0.7 | 1298.9 | 10.2
333.15 K, x2 = 0.8 | 1324.1 | 13.55
333.15 K, x2 = 0.9 | – | 17.71
333.15 K, x2 = 0.9007 | 1345.7 | –

Conditions | electrical conductivity [S/m]
293.2 K | 1.69
299.5 K | 1.85
302.7 K | 1.97
310 K | 2.19
313.7 K | 2.3
324.6 K | 2.62
334 K | 2.9
